Columns and labels:
ABUTH [1] = assay: Pre-emergence herbicidal action against ABUTH; assay type: in vivo, Abutilon theophrasti; settings: Abutilon theophrasti, 504 h; for pest or weed control at 80 g/ha: scored visually after 3 weeks vs untreated controls (100% = plants have died, 0% = like control plants); for pest or weed control at 20 g/ha: dosage 20 g/ha, scored visually after 3 weeks vs untreated controls, 100% = plants have died, 0% = like control plants, read-out: Pre-emergence action against ABUTH (herbicidal activity in percent)
Summary of the method: (§1)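 Pre-emergence soil-surface spray of formulated compound (WP or EC; 600 to 800 l/ha; 0.2% wetting agent) over seeds sown in sandy loam. After 3 weeks under greenhouse conditions, damage is estimated visually in percent against untreated plants.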

STEME [2] = assay: Pre-emergence herbicidal action against STEME; assay type: in vivo, Stellaria media; settings: Stellaria media, 504 h; for pest or weed control at 80 g/ha: dosage 80 g/ha
Summary of the method: as §1

STEME [3] = assay: Post-emergence herbicidal action against STEME; assay type: in vivo, Stellaria media; settings: Stellaria media, 504 h
Summary of the method: (§2)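 Greenhouse plants in sandy loam were sprayed at the one-leaf stage, 2 to 3 weeks after sowing, with WP or EC formulations as aqueous suspension or emulsion (600 to 800 l/ha water, 0.2% wetting agent). Visual damage was scored about 3 weeks later versus untreated controls, 0% = like control, 100% = dead.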

PHBPU [4] = assay: Pre-emergence herbicidal action against PHBPU; assay type: in vivo, Pharbitis purpurea; settings: Ipomoea purpurea, 504 h, dosage 80 g/ha
Summary of the method: as §1

ABUTH [5] = assay: Post-emergence herbicidal action against ABUTH; assay type: in vivo, Abutilon theophrasti; settings: Abutilon theophrasti, 504 h, visual assessment about 3 weeks after treatment vs untreated controls; for pest or weed control at 5 g/ha: dosage 5 g/ha; for pest or weed control at 20 g/ha: dosage 20 g/ha
Summary of the method: as §2

VIOTR [6] = assay: Pre-emergence herbicidal action against VIOTR; assay type: in vivo, Viola tricolor; settings: Viola tricolor, 504 h; for pest or weed control at 80 g/ha: dosage 80 g/ha
Summary of the method: as §1

SETVI [7] = assay: Pre-emergence herbicidal action against SETVI; assay type: in vivo, Setaria viridis; settings: Setaria viridis, 504 h; for pest or weed control at 20 g/ha: dosage 20 g/ha; for pest or weed control at 80 g/ha: dosage 80 g/ha
Summary of the method: as §1

AVEFA [8] = assay: Post-emergence herbicidal action against AVEFA; assay type: in vivo, Avena fatua; settings: Avena fatua, 504 h, 20 g/ha, visual assessment about 3 weeks after treatment, 100% = plants have died, 0% = like control plants
Summary of the method: as §2

VERPE [9] = assay: Post-emergence herbicidal action against VERPE; assay type: in vivo, Veronica persica; settings: Veronica persica, 504 h, 20 g/ha
Summary of the method: as §2

HORMU [10] = assay: Post-emergence herbicidal action against HORMU; assay type: in vivo, Hordeum murinum; settings: Hordeum murinum, 504 h, dosage 20 g/ha
Summary of the method: as §2

LOLRI [11] = assay: Post-emergence herbicidal action against LOLRI; assay type: in vivo, Lolium rigidum; settings: Lolium rigidum, 504 h, dosage 20 g/ha
Summary of the method: as §2

SETVI [12] = assay: Post-emergence herbicidal action against SETVI; assay type: in vivo, Setaria viridis; settings: Setaria viridis, 504 h; for pest or weed control at 5 g/ha: dosage 5 g/ha; for pest or weed control at 20 g/ha: dosage 20 g/ha
Summary of the method: as §2

DIGSA [13] = assay: Post-emergence herbicidal action against DIGSA; assay type: in vivo, Digitaria sanguinalis; settings: Digitaria sanguinalis, 504 h
Summary of the method: as §2

ALOMY [14] = assay: Post-emergence herbicidal action against ALOMY; assay type: in vivo, Alopecurus myosuroides; settings: Alopecurus myosuroides, 504 h, dosage 20 g/ha, visual assessment about 3 weeks after treatment vs untreated controls
Summary of the method: as §2

AMARE [15] = assay: Post-emergence herbicidal action against AMARE; assay type: in vivo, Amaranthus retroflexus; settings: Amaranthus retroflexus, 504 h, 20 g/ha, visual assessment about 3 weeks after treatment, 100% = plants have died, 0% = like control plants
Summary of the method: as §2

AVEFA [16] = assay: Pre-emergence herbicidal action against AVEFA; assay type: in vivo, Avena fatua; settings: Avena fatua, 504 h; 80 g/ha, pre-emergence
Summary of the method: as §1

VERPE [17] = assay: Pre-emergence herbicidal action against VERPE; assay type: in vivo, Veronica persica; settings: Veronica persica, 504 h; for pest or weed control at 80 g/ha: dosage 80 g/ha
Summary of the method: as §1

LOLRI [18] = assay: Pre-emergence herbicidal action against LOLRI; assay type: in vivo, Lolium rigidum; settings: Lolium rigidum, 504 h, 80 g/ha
Summary of the method: as §1

ALOMY [19] = assay: Pre-emergence herbicidal action against ALOMY; assay type: in vivo, Alopecurus myosuroides; settings: Alopecurus myosuroides, 504 h; 80 g/ha, pre-emergence, scored visually after 3 weeks vs untreated controls (100% = plants have died, 0% = like control plants)
Summary of the method: as §1

AMARE [20] = assay: Pre-emergence herbicidal action against AMARE; assay type: in vivo, Amaranthus retroflexus; settings: Amaranthus retroflexus, 504 h, scored visually after 3 weeks vs untreated controls, 100% = plants have died, 0% = like control plants
Summary of the method: as §1

ECHCG [21] = assay: Post-emergence herbicidal action against ECHCG; assay type: in vivo, Echinochloa crus-galli; settings: Echinochloa crus-galli, 504 h; for pest or weed control at 20 g/ha: dosage 20 g/ha
Summary of the method: as §2

VIOTR [22] = assay: Post-emergence herbicidal action against VIOTR; assay type: in vivo, Viola tricolor; settings: Viola tricolor, 504 h
Summary of the method: as §2

DIGSA [23] = assay: Pre-emergence herbicidal action against DIGSA; assay type: in vivo, Digitaria sanguinalis; settings: Digitaria sanguinalis, 504 h; for pest or weed control at 20 g/ha: dosage 20 g/ha; for pest or weed control at 80 g/ha: dosage 80 g/ha
Summary of the method: as §1

ECHCG [24] = assay: Pre-emergence herbicidal action against ECHCG; assay type: in vivo, Echinochloa crus-galli; settings: Echinochloa crus-galli, 504 h, 80 g/ha
Summary of the method: as §1

PHBPU [25] = assay: Post-emergence herbicidal action against PHBPU; assay type: in vivo, Pharbitis purpurea; settings: Ipomoea purpurea, 504 h; for pest or weed control at 20 g/ha: dosage 20 g/ha
Summary of the method: as §2

MATIN [26] = assay: Post-emergence herbicidal action against MATIN; assay type: in vivo, Matricaria inodora; settings: Tripleurospermum inodorum, 504 h, dosage 20 g/ha
Summary of the method: as §2

MATIN [27] = assay: Pre-emergence herbicidal action against MATIN; assay type: in vivo, Matricaria inodora; settings: Tripleurospermum inodorum, 504 h; for pest or weed control at 20 g/ha: dosage 20 g/ha; for pest or weed control at 80 g/ha: dosage 80 g/ha
Summary of the method: as §1

POLCO = assay: Pre-emergence herbicidal action against POLCO; assay type: in vivo, Polygonum convolvulus; settings: Fallopia convolvulus, 504 h, dosage 80 g/ha
Summary of the method: as §1

HORMU [28] = assay: Pre-emergence herbicidal action against HORMU; assay type: in vivo, Hordeum murinum; settings: Hordeum murinum, 504 h; 80 g/ha, pre-emergence
Summary of the method: as §1

CCNC(=O)c1c(C(F)(F)F)ccc(C(=O)Nc2nnnn2C)c1SC [Example 1-82]
pest or weed control at 80 g/ha (ABUTH [1]): 100% | pest or weed control at 20 g/ha (ABUTH [1]): 100% | pest or weed control at 20 g/ha (STEME [2]; dosage 20 g/ha): 100% | pest or weed control at 80 g/ha (STEME [2]): 100% | pest or weed control at 20 g/ha (STEME [3]): 90% | pest or weed control at 5 g/ha (STEME [3]; dosage 5 g/ha): 90% | pest or weed control at 80 g/ha (PHBPU [4]): 80% | pest or weed control at 5 g/ha (ABUTH [5]): 90% | pest or weed control at 20 g/ha (ABUTH [5]): 90% | pest or weed control at 20 g/ha (VIOTR [6]; dosage 20 g/ha): 100% | pest or weed control at 80 g/ha (VIOTR [6]): 100% | pest or weed control at 20 g/ha (SETVI [7]): 80% | pest or weed control at 80 g/ha (SETVI [7]): 100% | pest or weed control at 20 g/ha (AVEFA [8]): 90% | pest or weed control at 20 g/ha (VERPE [9]): 80% | pest or weed control at 20 g/ha (HORMU [10]): 90% | pest or weed control at 20 g/ha (LOLRI [11]): 80% | pest or weed control at 5 g/ha (SETVI [12]): 80% | pest or weed control at 20 g/ha (SETVI [12]): 90% | pest or weed control at 5 g/ha (DIGSA [13]; 5 g/ha): 90% | pest or weed control at 20 g/ha (DIGSA [13]): 90% | pest or weed control at 20 g/ha (ALOMY [14]): 90% | pest or weed control at 20 g/ha (AMARE [15]): 90% | pest or weed control at 80 g/ha (AVEFA [16]): 90% | pest or weed control at 80 g/ha (VERPE [17]): 90% | pest or weed control at 80 g/ha (LOLRI [18]): 80% | pest or weed control at 80 g/ha (ALOMY [19]): 80% | pest or weed control at 20 g/ha (AMARE [20]): 90% | pest or weed control at 80 g/ha (AMARE [20]): 100% | pest or weed control at 5 g/ha (ECHCG [21]; dosage 5 g/ha): 80% | pest or weed control at 20 g/ha (ECHCG [21]): 90% | pest or weed control at 20 g/ha (VIOTR [22]): 90% | pest or weed control at 20 g/ha (DIGSA [23]): 100% | pest or weed control at 80 g/ha (DIGSA [23]): 100% | pest or weed control at 80 g/ha (ECHCG [24]): 100% | pest or weed control at 5 g/ha (PHBPU [25]; dosage 5 g/ha): 80% | pest or weed control at 20 g/ha (PHBPU [25]): 90% | pest or weed control at 20 g/ha (MATIN [26]): 80% | pest or weed control at 20 g/ha (MATIN [27]): 100% | pest or weed control at 80 g/ha (MATIN [27]): 100% | pest or weed control at 80 g/ha (POLCO): 90%

Cn1nnnc1NC(=O)c1ccc(C(F)(F)F)c(C(=O)NC2CC2)c1Br [Example 1-209]
pest or weed control at 80 g/ha (ABUTH [1]): 100% | pest or weed control at 20 g/ha (ABUTH [1]): 100% | pest or weed control at 80 g/ha (STEME [2]): 90% | pest or weed control at 20 g/ha (STEME [3]): 90% | pest or weed control at 80 g/ha (PHBPU [4]): 80% | pest or weed control at 5 g/ha (ABUTH [5]): 90% | pest or weed control at 20 g/ha (ABUTH [5]): 100% | pest or weed control at 80 g/ha (VIOTR [6]): 100% | pest or weed control at 20 g/ha (SETVI [7]): 90% | pest or weed control at 80 g/ha (SETVI [7]): 100% | pest or weed control at 80 g/ha (HORMU [28]): 80% | pest or weed control at 20 g/ha (VERPE [9]): 80% | pest or weed control at 20 g/ha (LOLRI [11]): 80% | pest or weed control at 5 g/ha (SETVI [12]): 100% | pest or weed control at 20 g/ha (SETVI [12]): 100% | pest or weed control at 20 g/ha (DIGSA [13]): 90% | pest or weed control at 20 g/ha (ALOMY [14]): 80% | pest or weed control at 20 g/ha (AMARE [15]): 100% | pest or weed control at 80 g/ha (AVEFA [16]): 100% | pest or weed control at 20 g/ha (VERPE [17]; dosage 20 g/ha): 90% | pest or weed control at 80 g/ha (VERPE [17]): 100% | pest or weed control at 80 g/ha (ALOMY [19]): 80% | pest or weed control at 20 g/ha (AMARE [20]): 100% | pest or weed control at 80 g/ha (AMARE [20]): 100% | pest or weed control at 20 g/ha (ECHCG [21]): 90% | pest or weed control at 5 g/ha (VIOTR [22]; 5 g/ha): 100% | pest or weed control at 20 g/ha (VIOTR [22]): 100% | pest or weed control at 20 g/ha (DIGSA [23]): 100% | pest or weed control at 80 g/ha (DIGSA [23]): 100% | pest or weed control at 80 g/ha (ECHCG [24]): 90% | pest or weed control at 20 g/ha (PHBPU [25]): 90% | pest or weed control at 20 g/ha (MATIN [27]): 80% | pest or weed control at 80 g/ha (MATIN [27]): 100%
